# Results taken from patent US20250114430A1, “MODIFIED PEPTIDOMIMETICS AND METHODS OF USE” (The University of North Carolina at Chapel Hill, priority 2021, published 2025).
# pIC50: −log10 of the molar value. Entries after “also recorded” stand apart in the source; their conditions may differ. No end group written: not given here.
# Experiments:
# P. aeruginosa = assay: Murine model of P. aeruginosa bacterial pneumonia; assay type: in vivo, mice
# Protocol: FIGS. 15A-15D show (FIG. 15A) a schematic of a murine model of P. aeruginosa (top left panel), and bar graphs of (FIG. 15B) BAL monocytes, (FIG. 15C) BAL neutrophils, and (FIG. 15D) bacterial counts in whole lung at 24 hours quantified following experiments according to the mouse model as schematized and conditions as noted on the x-axis.
# FIGS. 16A-16G show data from further P. aeruginosa infection experiments. […] Increased inflammation is seen in infection as indicated in the alveolar/gas exchange regions of the lungs which show alveolar damage and thickening that prevent gas exchange. ELD607 treatment normalized alveoli histology similar to naïve lung conditions.
# Mice were exposed to vehicle or P. aeruginosa±ELD607 and BAL was obtained and stained with an anti-Orai1 antibody, fluorescent 2° and DAPI. […] FIG. 16G panels B and C show plots showing fluorescence intensities of Orai1 in macrophages and neutrophils, respectively. ***p<0.001 different as indicated. ND=no detectable neutrophils in these groups.
# Further in vivo experiments were performed. […] Bronchoalveolar lavage (BAL) and organ collection was performed 24 hours following treatment with peptide (FIG. 15A). […] Moreover, 24 h after infection, about 10^9 CFUs could be detected in murine whole lung homogenate. However, ELD607 caused an ˜5 log10 reduction in lung bacteria (FIG. 15D).
# Mice were exposed to vehicle or P. aeruginosa±ELD607 and BAL was obtained and stained with an anti-Orai1 antibody, fluorescent 2° and DAPI. […] FIG. 16G panels B and C show plots showing fluorescent intensities of Orai1 in macrophages and neutrophils, respectively.
# To examine Orai1 levels, BAL was then obtained from P. aeruginosa-infected mice, immediately cytospun, fixed in PFA and stained with an antibody against Orai1.
# αSMA = αSMA expression in fibroblasts after three days of TGFβ (confocal microscopy); assay type: cell-based
# Protocol: After three days of TGFβ induced αSMA deposition, ELD607 was then added for 24 h at 10 μM and αSMA expression was assessed by confocal microscopy. Data are shown as mean+/−SEM and data were analyzed by ANOVA.
# FIG. 39A-39B show ELD607 reduces αSMA deposition. After three days of TGFβ induced αSMA deposition, ELD607 or other compounds (pirfenidone, nintedanib, zigovractin, YM-58483) were then added as indicated for 24 h at 10 μM. […] Data are shown as mean+/−SEM and data were analyzed by ANOVA.
# In vitro Methods: Fibroblasts were exposed to 10 nM TFGβ for 3-7 days as indicated. Then, ELD607 was added overnight. Fibroblasts were then fixed in paraformaldehyde, stained with primary a smooth muscle actin (αSMA) antibody, and imaged by confocal microscopy. Myofibroblasts were exposed to ELD607 without any TGFβ pre-treatment. In some cases, Western blotting was used to probe for αSMA.
# Fibroblasts were exposed to TGFβ for three days and then exposed to vehicle or the indicated compounds. Cells were then fixed, stained for αSMA, and expression measured by confocal microscopy.
# Orai1 [1] = target: T1, Orai1 (Homo sapiens, UniProt Q96D31); assay: Dose response of Ca^2+ influx (SOCE), Ca^2+ add back approach, HEK293T cells; assay type: cell-based; set-up: Endogenous Orai1/store operated Ca^2+ influx have been extensively studied in HEK293T cells; endogenous in cells; host or cells: HEK293T
# T1 sequence (Q96D31 whole entry): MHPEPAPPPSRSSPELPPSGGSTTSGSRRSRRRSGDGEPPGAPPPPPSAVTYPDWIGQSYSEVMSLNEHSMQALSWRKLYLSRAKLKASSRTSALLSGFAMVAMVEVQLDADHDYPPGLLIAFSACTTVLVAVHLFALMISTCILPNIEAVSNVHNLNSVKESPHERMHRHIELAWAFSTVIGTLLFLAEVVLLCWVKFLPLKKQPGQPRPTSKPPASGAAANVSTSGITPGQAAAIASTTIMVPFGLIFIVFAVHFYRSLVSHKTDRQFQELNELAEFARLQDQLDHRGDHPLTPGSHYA
# Protocol: HEK293T cells were cultured in 384 well plates. Cells were then exposed to vehicle or […] ELD607 for 1 h. 100 nM thapsigargin was then added followed by extracellular Ca^2+ to differentiate ER Ca^2+ release and SOCE. n=8-12 cultures per data point.
# ELD607 requires Orai1 expression to inhibit Ca^2+ signaling. […] Using this approach, curves were fitted to the data and the 50% inhibitory concentrations (IC50S) were calculated.
# Orai1 [2] = target: T1, Orai1; assay: TIRF microscopy of Orai1 in the plasma membrane; assay type: cell-based; set-up: Endogenous Orai1/store operated Ca^2+ influx have been extensively studied in HEK293T cells; endogenous in cells; host or cells: HEK293T; conditions: Orai1-YFP, 3 h
# Excerpt: To determine whether ELD607 internalized Orai1, total internal reflection fluorescence (TIRF) microscopy was used to measure Orai1 in the plasma membrane. […] However, ELD607 reduced Orai1 plasma membrane expression by ˜50% (FIG. 26, panels A-B). […] We expressed NFAT-GFP in HEK293T cells and evaluated the ability of ELD607 to attenuate NFAT relocation to the nucleus after stimulation of SOCE by confocal microscopy. ELD607 reduced the percentage of NFAT in the nucleus by greater than 50% (FIG. 26, panels C-D).
# [3] = 10^7 CFU, 0.51 mg/kg intranasal
sequence,measurement,setting,value
"VHDIVNMLIRG [ELD607, VHDIVNMLIRG]",BAL monocytes,"P. aeruginosa; 10^7 CFU intratracheally, 0.51 mg/kg peptide intranasal 1 hour later, 24 hours",significantly retained monocyte levels
same,BAL lactate dehydrogenase (LDH),P. aeruginosa; [3],significantly reduced
same,BAL neutrophil elastase,P. aeruginosa; [3],significantly reduced
same,BAL total protein,P. aeruginosa; [3],significantly reduced
same,BAL neutrophils,"P. aeruginosa; 10^7 CFU, 0.51 mg/kg intranasal, 24 hours",reduced neutrophil levels
same,survival,"P. aeruginosa; 10^9 CFU/ml P. aeruginosa, 48 hours post-infection",significantly improved survival
same,bacterial counts in the spleen,P. aeruginosa; 24 hours post ELD607 treatment,reduced bacterial counts in the spleen
same,"BAL neutrophils, delayed treatment",P. aeruginosa; ELD607 added 24 hours after infection,reduced
same,BAL Macrophage Inflammatory Protein 2 (MIP-2),P. aeruginosa; P. aeruginosa infected mice,reduced
same,BAL interleukin-17 (IL-17),P. aeruginosa; P. aeruginosa infected mice,reduced
same,BAL keratinocytes-derived chemokine (KC),P. aeruginosa; P. aeruginosa infected mice,reduced
same,IL-6,P. aeruginosa; P. aeruginosa infected mice,reduced
same,interleukin-1β (IL-1β),P. aeruginosa; P. aeruginosa infected mice,reduced
same,lung histology,P. aeruginosa; P. aeruginosa infected mice,normalization of alveoli
same,tumor necrosis factor-α (TNF-α),P. aeruginosa; P. aeruginosa infected mice,reduced
same,weight loss,"P. aeruginosa; intranasal 10^7 CFU/ml P. aeruginosa, 24 hours",prevented the total weight loss
same,Orai1 levels in BAL cells (anti-Orai1 staining),P. aeruginosa; naïve and P. aeruginosa-infected mice,reduces Orai1 in murine BAL macrophages; also recorded: significant decrease in Orai1 levels
same,reduction in lung bacteria,"P. aeruginosa; whole lung homogenate, 24 h after infection",~5 log10
same,"reduction in αSMA versus pirfenidone, nintedanib, zigrocractin and YM-58483","αSMA; 10 μM, 24 h",significantly greater reduction in αSMA than all other compounds tested
same,"αSMA expression, dose dependence","αSMA; TGFβ three days, then ELD607 24 h",dose-dependently reduced αSMA expression
same,pIC50,"Orai1 [1]; Ca^2+ influx, HEK293T, 100 nM thapsigargin, read-out: IC50 (Molar)",7.09
same,Bottom (%),"Orai1 [1]; fitted curve bottom, text: maximal inhibitions",37.76%
same,reduction of Orai1 plasma membrane expression,Orai1 [2],~50%
